Like-named read-outs stand apart in the source and are kept apart here.
Tests used:
Format in all cases: cell-based
Dunaliella tertiolecta = details: 15 min. green light exposition at room temperature; neutral pH (pH 7); 350 000 cells/mL
Protocol: (§1) The detection threshold was obtained with the geometric mean. It was calculated with the following formula: Detection threshold=(CSEO×CMEO)^1/2 where
(§2) CMEO=minimal concentration resulting in a detectable inhibition of the algae efficacy.
(§3) CSEO and CMEO were estimated by a variance analysis ANNOVA™ followed by a Dunnett multiple comparison by comparing the mean efficacy of each tested concentration with the control mean. Calculations were performed with TOXSTAT™ (Version 3.5).
A Dunaliella tertiolecta culture was prepared as described in Example 2 above. As indicated in Example 2, the algae were reactivated before testing under ambient light and at room temperature during 45 minutes.
The algae formulations were then incubated for 15 minutes with water containing one of the various contaminants listed in Table 2 below at neutral pH under green light and at room temperature. The algae concentration was 350 000 cells/mL (500 μL of algae within 2 mL of aqueous solution (i.e. distilled water) containing substance to detect at indicated concentrations). For each substances, 5 concentrations in triplicates were tested. The TOXSTAT™ software was used to calculate from inhibition values and standard deviations obtained, the maximum concentration without observable effect and the minimal concentration with observable effects (See Table 2 below). The temperature was controlled by a thermostatic bath. Tests were performed in triplicates. The fluorescence emitted by each formulation was then measured with Luminotox™, a fluorometer that measures photosynthetic activity and detection threshold determined as described in the Example above.

Chlorella vulgaris [1] = details: 10-15 min. green light exposition at room temperature; neutral pH (pH 7); 5×10^6 cells/mL
Protocol: The algae concentration was 5×10^6 cells/mL (100 μL of algae within 2 mL of aqueous solution (i.e. distilled water)) containing the substance to detect at indicated concentrations. For each substances, 5 concentrations in triplicates were tested. The TOXSTAT™ software was used to calculate from inhibition values and standard deviations obtained, the maximum concentration without observable effect and the minimal concentration with observable effects. The threshold was calculated with the following formula: (maximum concentration without observable effect x minimal concentration with observable effects)^1/2 (See Table 2 below). The temperature was controlled by a thermostatic bath.
as §1, §2, §3

Chlorella vulgaris [2] = assay: Stability of Chlorella vulgaris assessed by the CI20 of atrazine; details: 10 min green light, room temperature; + or − two sigma 0.002; algae stored at 4° C. and 20° C.; atrazine tested 0-0.04 mg/L
Protocol: The stability of Chlorella vulgaris was evaluated by determining the Cl20 of atrazine using seven different atrazine concentrations. Cl20 is the concentration of atrazine inhibiting 20% of the efficacy emitted by Chlorella vulgaris as compared to a control Chlorella vulgaris preparation. The Cl20 is statistically determined with the software Icp version 2.0. Stability over time is determined by assessing the number of Cl20 within a range of 2 σ of average.
A Chlorella vulgaris culture was prepared as described in Example 1 above. As indicated above, the algae were reactivated before testing during 90 minutes under ambient light and at room temperature.
The culture was then incubated with atrazine for 10 minutes under green light and at room temperature. The cellular concentration of the algae was 5×10^6 cells/mL of solution (100 μL algae in 2 mL of atrazine-containing aqueous solution (i.e. distilled water)). The concentration of atrazine varied between 0 and 0.04 mg/L. Testing was performed in triplicates. The fluorescence emitted by each formulation was then measured with Luminotox™, a fluorometer that measures photosynthetic activity.

Anabaena sp. = assay: Detection of bioactive molecules with Anabaena sp.: inhibition of photosynthetic fluorescence (Luminotox); details: 10 min, neutral pH; for inhibition at 0.001 ppm: 1 ppb
Protocol: The photosynthetic efficiency is determined with the following formula (F2−F1)/F2. Any molecule affecting directly or indirectly the photosystems modify either F1 or F2 which modification necessarily decreases the photosynthetic efficiency. The inhibition curve of a particular molecule is determined by calculating the activity of the photosystems in the absence of the molecule and in the presence of the molecule and comparing both efficiency as follows as described in Conrad 1993:
Without Inhibitor (wi): efficiency(wi)=(F2(wi)−F1(wi)/F2(wi) With Inhibitor: Relative photosynthetic efficiency(sample)=(F2(sample)−F1(sample))/F2(wi) Percentage Efficiency: efficiency (%)=(efficiency(sample)×100)/efficiency(wi) Percentage Inhibition: Inhibition (%)=100−efficiency (%)
An Anabaena sp. culture was prepared as described in Example 3 above. As indicated in Example 3, the cyanobacteria were reactivated before testing under ambient light and at room temperature during 60 minutes.
The culture was then incubated with bioactive molecules listed in Table 1 below at concentrations of 1 ppm (except for atrazine which was used at a concentration of 1 ppb) for 10 minutes under ambient light followed by 10 minutes under green light and neutral pH. The cellular concentration was 1.0×10^7 cells/mL (100 μL of cyanobacteria within 2 mL of bioactive agent containing aqueous solution (i.e. distilled water)). Testing was performed in triplicates. The fluorescence emitted by each formulation was then measured with Luminotox™ a fluorometer that measures photosynthetic activity.

Chlorella vulgaris [3] = assay: Tetracycline detection with Chlorella vulgaris (ambient light, 35° C., low algae concentration); details: within 15 minutes, neutral pH, 2.5×10^6 cells/mL
Protocol: A Chlorella vulgaris culture was prepared as described in Example 1 above. As indicated in Example 1, the algae were reactivated before testing under ambient light and at room temperature during 90 minutes.
The algae formulation was then incubated for 15 or 60 minutes with water containing tetracycline at the indicated concentrations (FIG. 17) under ambient light at a temperature of 35° C. and at a neutral pH. Algae concentrations of 2.5×10^6 cells/mL (50 μL of algae within 2 mL of tetracycline-containing aqueous solutions (i.e. distilled water)) were tested. Testing was performed in triplicates. The fluorescence emitted by each formulation was then measured with Luminotox™, a fluorometer that measures photosynthetic activity.

Row | Compound | Detection threshold (Dunaliella tertiolecta) [ppm] | Detection threshold (Chlorella vulgaris [1]) [ppm] | CI20 (concentration inhibiting 20% of the efficacy), average over storage (Chlorella vulgaris [2]) | inhibition at 0.001 ppm (Anabaena sp.; 10 min ambient light followed by 10 min green light, read-out: Inhibition obtained (followed by 10 min green light)) [%] | inhibition at 0.001 ppm (Anabaena sp.; 10 min ambient light, read-out: Inhibition obtained (10 min ambiant light)) [%] | Concentration detected (Chlorella vulgaris [3]) [µg/mL] | inhibition at 1 ppm (Anabaena sp.; 10 min ambient light followed by 10 min green light, read-out: Inhibition obtained at 1 ppm (followed by 10 min green light)) [%] | inhibition at 1 ppm (Anabaena sp.; 10 min ambient light, 1.0×10^7 cells/mL, read-out: Inhibition obtained at 1 ppm (10 min ambiant light)) [%]
1 | CCNc1nc(Cl)nc(NC(C)C)n1 [atrazine] | 0.01 | 0.0007 | 0.0037 | 13 | 1 | – | – | –
2 | CN(C)[C@@H]1C(O)=C(C(N)=O)C(=O)[C@@]2(O)C(O)=C3C(=O)c4c(O)cccc4[C@@](C)(O)[C@H]3C[C@@H]12 [tetracycline] | – | – | – | – | – | 10 | 30 | 0
